Test results reported in ChEMBL document CHEMBL1201862, “PubChem BioAssay data set” (2004).
Activity calls are given as the source filed them.

Legend:
[1] = molecular target: Cystic fibrosis transmembrane conductance regulator/Golgi-associated PDZ and coiled-coil motif-containing protein (Homo sapiens, UniProt P13569+Q9HD26); experiment: potency against CAL PDZ-peptide interaction – biochemical, fluorescence polarization, Cerulean-tagged CAL PDZ, cherry-picks, dose response (AID 504773)
Protein Rev = Protein Rev (Human immunodeficiency virus type 1 group M subtype B (isolate HXB2)(HIV-1), UniProt P04618); experiment: blockers of HIV Rev/RRE RNA complex – biochemical, fluorescence polarization, HIV-1, dose response (AID 434976); parameters: species or system Human immunodeficiency virus 1
[2] = molecular target: Female germline-specific tumor suppressor gld-1 (Caenorhabditis elegans, UniProt Q17339); experiment: blockers of GLD-1/TGE RNA complex formation – biochemical, fluorescence polarization, C. elegans, dose response (AID 2802);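 also: fluorescence polarization of labeled TGE RNA bound by purified gld-1 protein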
[3] = molecular target: T1, RNA-binding protein pos-1 (Caenorhabditis elegans, UniProt G5EF15); experiment: disruptors of C. elegans POS-1 RNA interaction – biochemical, fluorescence polarization, dose response (AID 1964);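 also: purified POS-1 fused to maltose binding protein made in E. coli; potency of compounds blocking POS-1 binding to fluorescent RNA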
T1 sequence (G5EF15 whole entry): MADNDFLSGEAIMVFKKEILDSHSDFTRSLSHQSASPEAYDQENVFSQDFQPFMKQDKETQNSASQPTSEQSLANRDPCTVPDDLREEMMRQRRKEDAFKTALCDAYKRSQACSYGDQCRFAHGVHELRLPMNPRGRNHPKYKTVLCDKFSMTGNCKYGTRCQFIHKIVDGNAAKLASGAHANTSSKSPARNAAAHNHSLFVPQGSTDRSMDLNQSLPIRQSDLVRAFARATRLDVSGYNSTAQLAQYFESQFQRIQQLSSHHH

[4] = molecular target: T2, Zinc finger protein mex-5 (Caenorhabditis elegans, UniProt Q9XUB2); experiment: potency of MEX-5 RNA-binding blockers – biochemical, C. elegans, fluorescence polarization, dose response (AID 1960)
T2 sequence (Q9XUB2 whole entry): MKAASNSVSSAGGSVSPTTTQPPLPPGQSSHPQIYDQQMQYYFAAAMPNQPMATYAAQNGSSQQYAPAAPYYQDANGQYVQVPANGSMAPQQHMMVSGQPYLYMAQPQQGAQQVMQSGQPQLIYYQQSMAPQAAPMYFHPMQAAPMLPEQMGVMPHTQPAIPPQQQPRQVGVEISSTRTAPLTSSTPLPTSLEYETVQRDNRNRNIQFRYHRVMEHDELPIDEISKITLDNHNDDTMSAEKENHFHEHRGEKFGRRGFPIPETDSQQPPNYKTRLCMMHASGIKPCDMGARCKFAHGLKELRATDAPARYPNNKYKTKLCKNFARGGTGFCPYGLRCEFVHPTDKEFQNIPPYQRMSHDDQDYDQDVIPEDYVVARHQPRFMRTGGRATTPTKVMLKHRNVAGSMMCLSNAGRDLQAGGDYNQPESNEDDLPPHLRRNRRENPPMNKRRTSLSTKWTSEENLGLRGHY

[5] = molecular target: T3, Long-chain-fatty-acid--AMP ligase FadD28 (Mycobacterium tuberculosis, UniProt P9WQ59); experiment: Fluorescence polarization aasay to screen for inhibitors that compete for the binding of FadD28 to a bisubstrate Measured in Biochemical System Using Plate Reader - 2147-01_Inhibitor_Dose_CherryPick_Activity.; assay type: functional, Mycobacterium tuberculosis H37Rv
T3 sequence (P9WQ59 whole entry): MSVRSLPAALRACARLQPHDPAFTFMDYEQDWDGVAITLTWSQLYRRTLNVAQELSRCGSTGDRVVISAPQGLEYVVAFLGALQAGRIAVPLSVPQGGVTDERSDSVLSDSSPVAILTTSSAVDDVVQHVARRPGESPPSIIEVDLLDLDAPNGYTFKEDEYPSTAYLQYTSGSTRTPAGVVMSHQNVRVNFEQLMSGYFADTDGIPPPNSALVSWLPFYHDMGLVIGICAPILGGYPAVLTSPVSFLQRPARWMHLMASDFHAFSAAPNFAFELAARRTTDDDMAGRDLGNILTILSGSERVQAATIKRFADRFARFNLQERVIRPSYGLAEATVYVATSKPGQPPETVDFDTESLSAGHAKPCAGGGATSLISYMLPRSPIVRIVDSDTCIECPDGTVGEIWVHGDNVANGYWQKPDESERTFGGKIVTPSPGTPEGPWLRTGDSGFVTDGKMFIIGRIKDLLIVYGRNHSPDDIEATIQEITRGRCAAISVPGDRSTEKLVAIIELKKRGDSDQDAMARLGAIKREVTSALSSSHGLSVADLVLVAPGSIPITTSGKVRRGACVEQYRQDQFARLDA

Protein S100-A4 = Protein S100-A4 (Homo sapiens, UniProt P26447); experiment: human S100A4 peptide interaction inhibition curves – biochemical, fluorescence polarization, cherry-picked hits, dose response (AID 687001); assay type: functional
[6] = molecular target: T4, Histone-lysine N-methyltransferase NSD2 (Homo sapiens, UniProt O96028); assay type: biochemical
T4 sequence (O96028 whole entry): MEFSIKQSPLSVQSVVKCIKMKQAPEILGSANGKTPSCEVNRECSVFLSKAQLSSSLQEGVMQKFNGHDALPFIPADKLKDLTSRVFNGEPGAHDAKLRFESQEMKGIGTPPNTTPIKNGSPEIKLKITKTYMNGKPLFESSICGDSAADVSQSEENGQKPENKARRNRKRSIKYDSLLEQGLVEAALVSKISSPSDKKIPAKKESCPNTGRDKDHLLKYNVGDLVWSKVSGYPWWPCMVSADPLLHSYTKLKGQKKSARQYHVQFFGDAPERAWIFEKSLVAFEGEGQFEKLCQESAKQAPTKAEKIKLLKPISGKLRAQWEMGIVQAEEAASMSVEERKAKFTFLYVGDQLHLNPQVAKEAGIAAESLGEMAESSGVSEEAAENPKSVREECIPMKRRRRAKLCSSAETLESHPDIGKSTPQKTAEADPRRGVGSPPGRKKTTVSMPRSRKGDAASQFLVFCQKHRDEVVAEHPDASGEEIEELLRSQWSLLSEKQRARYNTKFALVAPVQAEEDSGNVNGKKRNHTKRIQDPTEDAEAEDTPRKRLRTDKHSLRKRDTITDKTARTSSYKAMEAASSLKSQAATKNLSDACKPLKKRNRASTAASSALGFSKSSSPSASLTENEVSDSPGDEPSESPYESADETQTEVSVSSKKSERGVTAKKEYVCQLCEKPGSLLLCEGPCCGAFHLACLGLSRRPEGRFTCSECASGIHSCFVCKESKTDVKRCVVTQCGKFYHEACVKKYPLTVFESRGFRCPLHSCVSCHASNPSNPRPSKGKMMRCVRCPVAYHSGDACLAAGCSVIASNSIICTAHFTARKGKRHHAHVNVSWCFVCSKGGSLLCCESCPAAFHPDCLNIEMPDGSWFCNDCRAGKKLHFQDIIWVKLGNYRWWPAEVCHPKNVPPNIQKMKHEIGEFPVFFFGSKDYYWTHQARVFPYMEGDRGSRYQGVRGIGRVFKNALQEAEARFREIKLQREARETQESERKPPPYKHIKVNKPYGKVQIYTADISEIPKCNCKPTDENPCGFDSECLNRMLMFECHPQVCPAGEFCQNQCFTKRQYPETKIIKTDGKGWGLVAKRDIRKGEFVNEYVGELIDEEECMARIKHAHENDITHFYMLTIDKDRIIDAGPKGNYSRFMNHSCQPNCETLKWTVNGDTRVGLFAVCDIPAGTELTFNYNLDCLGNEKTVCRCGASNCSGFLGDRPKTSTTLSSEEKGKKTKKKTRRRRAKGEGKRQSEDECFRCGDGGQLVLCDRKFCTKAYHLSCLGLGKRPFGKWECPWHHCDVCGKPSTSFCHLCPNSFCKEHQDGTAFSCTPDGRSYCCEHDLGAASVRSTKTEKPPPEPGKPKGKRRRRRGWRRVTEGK

Fibrinogen beta chain [7] = molecular target: T5, Fibrinogen beta chain (Homo sapiens, UniProt P02675); experiment: Fluorescence polarization-based biochemical high throughput dose response assay to identify inhibitors that disrupt the binding of a cyclic peptide (Tn6) to the fibrin proteolytic product D-Dimer and fragment E complex [DD(E )].
Fibrinogen beta chain [8] = molecular target: T5, Fibrinogen beta chain; experiment: Fluorescence polarization-based biochemical high throughput dose response assay to identify inhibitors that disrupt the binding of a cyclic peptide (Tn7) to the fibrin proteolytic product D-Dimer and fragment E complex [DD(E )].

T5 sequence (P02675 whole entry, the tested form may be a part): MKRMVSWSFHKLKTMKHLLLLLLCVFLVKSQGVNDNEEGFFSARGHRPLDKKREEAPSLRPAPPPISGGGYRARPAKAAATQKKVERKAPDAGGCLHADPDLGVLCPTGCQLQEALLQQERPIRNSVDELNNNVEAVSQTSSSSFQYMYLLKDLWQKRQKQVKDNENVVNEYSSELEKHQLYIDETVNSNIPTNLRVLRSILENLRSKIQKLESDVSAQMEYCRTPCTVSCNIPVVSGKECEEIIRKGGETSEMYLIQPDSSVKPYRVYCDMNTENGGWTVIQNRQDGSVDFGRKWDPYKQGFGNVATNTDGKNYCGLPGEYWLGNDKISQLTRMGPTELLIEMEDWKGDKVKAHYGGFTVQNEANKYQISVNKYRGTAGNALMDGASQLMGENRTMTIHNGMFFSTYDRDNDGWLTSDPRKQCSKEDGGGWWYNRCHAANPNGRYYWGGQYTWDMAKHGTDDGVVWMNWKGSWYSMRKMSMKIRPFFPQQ
Chain of Protein Rev (P04618 whole entry): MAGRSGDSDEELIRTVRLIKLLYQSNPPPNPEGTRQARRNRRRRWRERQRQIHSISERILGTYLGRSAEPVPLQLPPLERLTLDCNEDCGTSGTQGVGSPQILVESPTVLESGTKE
Chain of Cystic fibrosis transmembrane conductance regulator/Golgi-associated PDZ and coiled-coil motif-containing protein (P13569 whole entry, other chains not shown): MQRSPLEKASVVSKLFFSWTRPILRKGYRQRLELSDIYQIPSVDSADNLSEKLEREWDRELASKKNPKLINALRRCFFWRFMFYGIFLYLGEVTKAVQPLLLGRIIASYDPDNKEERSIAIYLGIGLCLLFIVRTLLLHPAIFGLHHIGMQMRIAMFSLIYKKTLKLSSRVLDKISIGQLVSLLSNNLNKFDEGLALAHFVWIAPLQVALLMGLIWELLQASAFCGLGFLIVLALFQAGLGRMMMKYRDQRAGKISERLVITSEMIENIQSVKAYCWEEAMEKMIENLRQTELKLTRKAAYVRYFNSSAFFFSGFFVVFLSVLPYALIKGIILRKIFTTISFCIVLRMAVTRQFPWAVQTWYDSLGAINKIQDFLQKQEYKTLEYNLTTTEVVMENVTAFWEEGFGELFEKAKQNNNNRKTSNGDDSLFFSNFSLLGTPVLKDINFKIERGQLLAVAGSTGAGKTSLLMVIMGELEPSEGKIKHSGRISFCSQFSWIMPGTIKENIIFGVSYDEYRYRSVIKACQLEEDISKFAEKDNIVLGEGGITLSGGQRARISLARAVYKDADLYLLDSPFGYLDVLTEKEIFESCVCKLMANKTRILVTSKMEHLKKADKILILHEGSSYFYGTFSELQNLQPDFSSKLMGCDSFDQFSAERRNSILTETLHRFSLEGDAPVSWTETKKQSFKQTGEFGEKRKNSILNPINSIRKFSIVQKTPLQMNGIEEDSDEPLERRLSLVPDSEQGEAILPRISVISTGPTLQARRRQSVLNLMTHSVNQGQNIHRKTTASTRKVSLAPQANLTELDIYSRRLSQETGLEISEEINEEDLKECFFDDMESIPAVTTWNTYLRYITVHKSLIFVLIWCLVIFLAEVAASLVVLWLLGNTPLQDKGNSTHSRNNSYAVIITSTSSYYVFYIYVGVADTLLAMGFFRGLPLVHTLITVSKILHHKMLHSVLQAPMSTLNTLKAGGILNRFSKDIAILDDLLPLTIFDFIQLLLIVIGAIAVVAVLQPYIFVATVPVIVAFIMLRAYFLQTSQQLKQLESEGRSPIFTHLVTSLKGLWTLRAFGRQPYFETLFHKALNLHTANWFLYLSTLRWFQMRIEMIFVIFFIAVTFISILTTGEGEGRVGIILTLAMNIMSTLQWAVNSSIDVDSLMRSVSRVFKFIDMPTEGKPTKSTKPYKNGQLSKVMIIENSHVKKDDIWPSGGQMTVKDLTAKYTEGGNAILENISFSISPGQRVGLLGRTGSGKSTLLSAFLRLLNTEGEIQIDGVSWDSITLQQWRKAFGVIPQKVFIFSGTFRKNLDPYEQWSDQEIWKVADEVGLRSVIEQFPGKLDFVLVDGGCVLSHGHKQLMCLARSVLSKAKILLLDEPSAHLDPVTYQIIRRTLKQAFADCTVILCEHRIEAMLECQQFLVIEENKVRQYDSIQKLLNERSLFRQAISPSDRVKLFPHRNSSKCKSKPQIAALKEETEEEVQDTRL
Chain of Protein S100-A4 (P26447 whole entry): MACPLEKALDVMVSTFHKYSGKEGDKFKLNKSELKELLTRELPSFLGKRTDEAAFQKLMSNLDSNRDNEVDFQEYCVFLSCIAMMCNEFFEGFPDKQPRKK
Chain of Female germline-specific tumor suppressor gld-1 (Q17339 whole entry, the tested form may be a part): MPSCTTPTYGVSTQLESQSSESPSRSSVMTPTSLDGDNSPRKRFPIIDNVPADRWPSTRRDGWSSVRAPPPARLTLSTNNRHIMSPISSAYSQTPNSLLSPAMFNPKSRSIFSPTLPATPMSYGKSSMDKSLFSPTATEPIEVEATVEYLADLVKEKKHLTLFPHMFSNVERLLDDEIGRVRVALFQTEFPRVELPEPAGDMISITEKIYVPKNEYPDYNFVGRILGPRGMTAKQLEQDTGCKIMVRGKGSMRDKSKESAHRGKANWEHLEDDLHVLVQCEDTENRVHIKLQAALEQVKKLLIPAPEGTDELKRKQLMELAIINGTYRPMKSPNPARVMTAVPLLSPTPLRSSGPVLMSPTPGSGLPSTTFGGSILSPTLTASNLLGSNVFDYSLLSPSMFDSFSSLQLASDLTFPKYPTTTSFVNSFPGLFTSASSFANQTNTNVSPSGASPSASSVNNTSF

SMILES	AC50 [1]	IC50 (Protein Rev)	IC50 [2]	EC50 [3]	EC50 [4]	AC50 [5]	AC50 (Protein S100-A4)	AC50 [6]	IC50 (Fibrinogen beta chain [7])	IC50 (Fibrinogen beta chain [8])
Cc1sc(NC(=O)c2ccco2)c(C(Nc2ccccn2)c2ccccc2)c1C (stereo not given)	60.1 µM (active)									
Cn1c(=O)cc2c3c(c(N4CCCCC4)ccc31)C(=O)c1ccccc1-2		14.2 µM (not active)	4.96 µM (active)	> 300 µM (inconclusive)	25.9 µM (active)	11.8 µM (active)	1.72 µM (active)	12.3 µM (active)	> 27.8 µM (inactive)	> 83.3 µM (inactive)
